Where two headings read alike, the source gives them in different places.
How the values were obtained:
MiaPaCa-2 = assay: Cell viability assay (CellTiter Glo), pancreatic carcinoma MiaPaCa-2; format: cell-based; conditions: Homo sapiens, MIA PaCa-2; pancreatic carcinoma, 96 hours, CellTiter Glo; read-out: IC50 MiaPaCa-2
Experimental: (§1) Cell viability assay was performed to assess the potency of the compounds in human cancer cell lines KP4 (pancreatic ductal adenocarcinoma), MiaPaCa-2 (pancreatic carcinoma), AsPC-1 (pancreatic adenocarcinoma, ascites), 143B (osteosarcoma), and SJSA-1 (osteosarcoma). Selected compounds were also assayed in a human breast epithelial cell line MCF-10A, a nontumorigenic cell line as a control to assess differential activity. Cells at a density of 500-5,000 cells/well were seeded in 96-well plates and incubated at 37° C. overnight. A series of 9 different concentrations of compound stocks (500×) were created by 3-fold serial dilution in DMSO. These compounds were further diluted in culture media and then added to cells so that the final DMSO concentration was equal to 0.25% or less. After 96 hours of incubation, 50 μL of CellTiter Glo reagent (Promega) was added to each well and luminescence was measured after 10 minutes using EnVision (PerkinElmer). Compounds titrated from top concentration of up to 30 μM. The select compounds were tested initially from 30 μM as the top concentration in duplicates (range of 4.6 nM-30 μM). […] Luminescence from cells treated with DMSO alone was set as Max and % of inhibition was calculated as follows: Inhibition %=(Max-Sample value)/Max*100. Data was analyzed using XL-fit software (ID Business Solutions Ltd.). IC50, relative IC50, or % of top inhibition was calculated.
The results of the assay in the pancreatic cell lines are given in Table 15a for PANC1, Table 15b for MiaPaCa-2, and Table 15c for AsPC-1.

[1] = PK profile, IV plasma concentration and PK parameters; format: in vivo; conditions: Balb/C nude, mouse
Experimental: The PK profiles of compounds 148, 149, 150, 156 and 169 are shown below. Compound 156 was formulated in 30% Kolliphor EL (Cremophor EL) in water and compounds 148, 149, 150 and 169 were formulated in 30% Kolliphore EL with 1% poloxamar 407 in water. All compounds were dosed at 5 mg/kg. Blood samples were collected at various time points and analyzed using the method described above.

A549 = assay: Cell viability assay, A549 cells; format: cell-based; conditions: Homo sapiens, A549, Cell Line A549; read-out: IC50
Experimental: Example 5: Inducer Compound Effect on Growth of A549 and KP4 Cells
as §1, with “in” for “in human”, “line” for “lines”, “adenocarcinoma).” for “adenocarcinoma), MiaPaCa-2 (pancreatic carcinoma), AsPC-1 (pancreatic adenocarcinoma, ascites), 143B (osteosarcoma), and SJSA-1 (osteosarcoma). Selected compounds were also assayed in a human breast epithelial cell line MCF-10A, a nontumorigenic cell line as a control to assess differential activity.”, “1,000-10,000” for “500-5,000”, “All” for “Compounds titrated from top concentration of up to 30 μM. The select”, “calculated. […]” for “calculated.”

786-O = assay: Cell proliferation (Alamar Blue) assay, 786-O renal cell carcinoma, with/without ferrostatin; format: cell-based; conditions: Homo sapiens, 786-0, Cell Line 786-O; read-out: IC50
Experimental: (§2) Cell viability assay was performed to assess the potency of the compounds in human cancer cell lines 786-O (renal cell carcinoma) and SJSA-1 (osteosarcoma). Additional cell lines, such as those described above in Example 4 as well as various others, e.g., pancreatic cancer cell lines (Panc 02.13, BxPC-3, Panc 12, Panc 02.03, Panc 6.03, PSN-1, HPAC, and Capan-1) and prostate cancer cell lines (PC-3, DU145, 22Rv1, NCI-H660, BPH1, LNCaP, BM-1604, and MDA PCa 2b), were tested for select compounds as shown in Table 25.
(§3) Cells (SJSA-1, 786-O and A431) were seeded (5000 cells/100 μL/well) in 96-well tissue culture plate and incubated at 37° C./5% CO2 for 16-24 hours. The cells were then treated with compounds (25 μL of 5×). The compound concentrations were 10-0.0005 μM prepared in 3-fold serial dilutions with final DMSO concentration of 1%. The plates were then incubated for 24 h at 37° C./5% CO2 in a moist environment. Then Alamar Blue™ reagent (final concentration 1×-12.5 μL) was added to each well and incubated for 1.5 hours at 37° C./5% CO2. The plates were read on fluorescence reader at 540 nm excitation and 590 nm emission wavelengths. The IC50 values were subsequently determined using a sigmoidal dose-response curve (variable slope) in GraphPad Prism® 5 software.
(§4) Studies have shown that lipophilic antioxidants, such as ferrostatin, can rescue cells from GPX4 inhibition-induced ferroptosis. For instance, mesenchymal state GPX4-knockout cells can survive in the presence of ferrostatin, however, when the supply of ferrostatin is terminated, these cells undergo ferroptosis (see, e.g., Viswanathan et al., Nature 547:453-7, 2017). […] Accordingly, the ability of a molecule to induce ferroptotic cancer cell death, and that such ability is admonished by the addition of ferrostatin, is clear indication that the molecule is an GPX4 inhibitor.

SJSA-1 = assay: Cell proliferation (Alamar Blue) assay, SJSA-1 osteosarcoma, with/without ferrostatin; format: cell-based, human; conditions: Homo sapiens, SJSA-1, Cell Line SJSA-1; read-out: IC50
Experimental: as §2, §3, §4

MCF-10A = assay: Cell viability assay (CellTiter Glo), non-tumorigenic breast epithelial cell line MCF-10A; format: cell-based; conditions: Homo sapiens, 96 hours
Experimental: as §1
Paclitaxel was used as the positive control for cytotoxicity.

[2] = iv, 5 mg/kg, 30% Kolliphor EL in water (Table 10b)
[3] = iv, 5 mg/kg, 30% Kolliphore EL with 1% poloxamar 407 in water

IC50 (A549) [nM] | IC50 (786-O) [nM] | IC50 (SJSA-1) [nM] | SMILES | further results
 |  |  | CN(C)C(=O)[C@H]1Cc2c([nH]c3ccccc23)[C@@H](c2ccc([Si](C)(C)C)cc2)N1C(=O)CCl [Example 67a] | IC50 (MiaPaCa-2): 1360 nM
4300 | 75.1 | 42.2 | C#CC(=O)N1[C@@H](CCCC)Cc2c([nH]c3c(F)cc(F)cc23)[C@@H]1c1ccc(F)cc1 [Compound 156] | concentration at 5 min ([1]; 5 mg/kg IV, BID q12, post 2nd dose, 5 min, 30% Kolliphor EL in water): 18500 ng/mL; concentration at 0.25 h ([1]; 5 mg/kg IV, BID q12, post 2nd dose, 0.25 h, 30% Kolliphor EL in water): 4640 ng/mL; concentration at 0.5 h ([1]; 5 mg/kg IV, BID q12, post 2nd dose, 0.5 h, 30% Kolliphor EL in water): 984 ng/mL; concentration at 1 h ([1]; 5 mg/kg IV, BID q12, post 2nd dose, 1 h, 30% Kolliphor EL in water): 302 ng/mL; concentration at 2 h ([1]; 5 mg/kg IV, BID q12, post 2nd dose, 2 h, 30% Kolliphor EL in water): 105 ng/mL; concentration at 4 h ([1]; 5 mg/kg IV, BID q12, post 2nd dose, 4 h, 30% Kolliphor EL in water): 45.9 ng/mL; concentration at 8 h ([1]; 5 mg/kg IV, BID q12, post 2nd dose, 8 h, 30% Kolliphor EL in water): 24.4 ng/mL; C0 [1, 2]: 38200 ng/mL; MRT inf [1, 2]: 33.2 min; clearance [1, 2]: 14.5 mL/min/kg; half-life [1, 2]: 180 min; AUC(0-inf) ([1]; iv, 5 mg/kg, 30% Kolliphor EL in water (Table 10b), read-out: AUCInf): 5920 ng·h/mL; AUC(0-t) ([1]; iv, 5 mg/kg, 30% Kolliphor EL in water (Table 10b), read-out: AUClast): 5810 ng·h/mL; Vd ([1]; iv, 5 mg/kg, 30% Kolliphor EL in water (Table 10b), read-out: Vss): 0.48 L/kg; Vd ([1]; iv, 5 mg/kg, 30% Kolliphor EL in water (Table 10b), read-out: Vz): 3.72 L/kg
 | 9 | 8 | C[C@H]1Cc2c([nH]c3ccccc23)[C@H](c2ccc(NC34CC5CC(CC(C5)C3)C4)cc2)N1C(=O)CCl [Compound 150, 1-((1S,3S)-1-(4-(((3R,5R,7R)-adamantan-1-yl)amino)phenyl)-3-methyl-1,3,4,9-tetrahydro-2H-pyrido[3,4-b]indol-2-yl)-2-chloroethan-1-one] | C0 [1, 3]: 3400 ng/mL; Cmax [1, 3]: 2260 ng/mL; clearance [1, 3]: 113 mL/min/kg; AUC(0-t) ([1]; iv, 5 mg/kg, 30% Kolliphore EL with 1% poloxamar 407 in water, read-out: AUC0-t): 735 ng·h/mL; AUC(0-inf) ([1]; iv, 5 mg/kg, 30% Kolliphore EL with 1% poloxamar 407 in water, read-out: AUC0-∞): 740 ng·h/mL; Vd ([1]; iv, 5 mg/kg, 30% Kolliphore EL with 1% poloxamar 407 in water, read-out: Vd): 3.25 L/kg; Vd ([1]; iv, 5 mg/kg, 30% Kolliphore EL with 1% poloxamar 407 in water, read-out: Vss): 1.64 L/kg; half-life ([1]; iv, 5 mg/kg, 30% Kolliphore EL with 1% poloxamar 407 in water, time points considered 0.25-2 h): 19.8 min
 |  |  | CN(C)C(=O)[C@H]1Cc2c([nH]c3ccccc23)[C@H](c2ccc(C(=O)NC[Si](C)(C)C)cc2)N1C(=O)CCl [Example 66] | IC50 (MiaPaCa-2): 159 nM
2820 | 137 | 93.5 | C[C@H]1Cc2c([nH]c3ccccc23)[C@H](c2ccc(F)cc2)N1C(=O)CCl [Compound 221] | 
 |  |  | COC(=O)[C@H]1Cc2c([nH]c3ccccc23)[C@H](c2ccc(C(=O)NCCN)cc2)N1C(=O)CCl [Example 15] | IC50 (MiaPaCa-2): 1320 nM
 |  |  | COC(=O)[C@H]1Cc2c([nH]c3ccccc23)[C@H](c2ccc(C(=O)OCC3CCCCC3)cc2)N1C(=O)CCl [Example 89] | IC50 (MCF-10A): 420 nM
13300 | 214 | 86.8 | C#CCOc1ccc2[nH]c3c(c2c1)C[C@H](C)N(C(=O)CCl)[C@H]3c1ccc(NC23CC4CC(CC(C4)C2)C3)cc1 [Compound 207] | 
14200 | 194 | 120 | C#CC(=O)N1[C@@H](c2ccc(C3CCOCC3)cc2)c2[nH]c3ccccc3c2C[C@@H]1C [Compound 192] | 
4410 | 61.9 | 32.4 | C#CC(=O)N1[C@@H](CCCC)Cc2c([nH]c3ccccc23)[C@@H]1c1ccc(F)cc1 [Compound 205] | 
 |  |  | COC(=O)[C@H]1Cc2c([nH]c3ccccc23)[C@H](c2ccc(C(=O)OCC3(C)CC3)cc2)N1C(=O)CCl [Example 84] | IC50 (MCF-10A): 480 nM
 |  |  | CC(=O)O[C@H]1C(=O)[C@@]2(C)[C@H]([C@H](OC(=O)c3ccccc3)[C@]3(O)C[C@H](OC(=O)[C@H](O)[C@@H](NC(=O)c4ccccc4)c4ccccc4)C(C)=C1C3(C)C)[C@]1(OC(C)=O)CO[C@@H]1C[C@@H]2O [paclitaxel, Paclitaxel, reference compound] | IC50 (MCF-10A): 1 nM
14300 | 286 | 265 | C#CC(=O)N1[C@@H](c2ccc(C#N)cc2)c2[nH]c3ccccc3c2C[C@@H]1C [Compound 194] | 
27400 | > 30000 | > 30000 | C=CC(=O)N1[C@@H](CCCC)Cc2c([nH]c3ccccc23)[C@@H]1c1ccc(F)cc1 [Compound 179] | 
3220 | 78.8 | 67.7 | C#CC(=O)N1[C@@H](c2ccc(F)cc2)c2[nH]c3ccccc3c2C[C@@H]1C1CCCC1 [Compound 177] | 
10900 | 701 | 448 | C#CC(=O)N1[C@@H](c2ccc(F)cc2F)c2[nH]c3ccccc3c2C[C@@H]1C [Compound 200] | 
14800 | 642 | 190 | C#CC(=O)N1[C@@H](c2c(F)cccc2F)c2[nH]c3ccccc3c2C[C@@H]1C [Compound 201] | 
8620 | 1260 | 1160 | C[C@H]1Cc2c([nH]c3ccccc23)[C@H](C23CC(F)(C2)C3)N1C(=O)CCl [Compound 226] | 
16400 | 394 | 256 | C#CC(=O)N1[C@@H](c2ccc(Br)cc2)c2[nH]c3ccccc3c2C[C@@H]1C [Compound 195] | 
13300 | 223 | 175 | C#CC(=O)N1[C@@H](c2ccc(OC)cc2)c2[nH]c3ccccc3c2C[C@@H]1C [Compound 193] | 
3350 | 170 | 115 | C[C@H]1Cc2c([nH]c3ccccc23)[C@H](c2ccc(S(F)(F)(F)(F)F)cc2)N1C(=O)CCl [Compound 222] | 

Reference: US11098040B2, “Compounds and methods of use” (Ferro Therapeutics, Inc., priority 2018, dated 2021)
